Results from PubChem BioAssay (NCI).
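Each compound was tested at five concentrations against cells in 96-well plates for 48 hours. GI50: concentration for 50% inhibition of growth. TGI: total growth inhibition.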

What was measured:
Experiment in all cases: NCI tumour cell line growth inhibition, 48 h
SF-295 CNS = system: SF-295 CNS
MDA-MB-435 = system: MDA-MB-435
A498 renal = system: A498 renal
UO-31 renal = system: UO-31 renal
M14 melanoma = system: M14 melanoma
UACC-257 melanoma = system: UACC-257 melanoma
HT29 colon = system: HT29 colon
KM12 colon = system: KM12 colon
NCI/ADR-RES ovarian = system: NCI/ADR-RES ovarian
HS 578T breast = system: HS 578T breast
OVCAR-5 ovarian = system: OVCAR-5 ovarian
COLO 205 colon = system: COLO 205 colon
HOP-62 NSCLC = system: HOP-62 NSCLC
SNB-75 CNS = system: SNB-75 CNS
U251 CNS = system: U251 CNS
SF-268 CNS = system: SF-268 CNS
NCI-H522 lung = system: NCI-H522 lung
MDA-MB-231 breast = system: MDA-MB-231 breast
NCI-H226 lung = system: NCI-H226 lung
K-562 leukemia = system: K-562 leukemia
T-47D breast = system: T-47D breast
TK-10 renal = system: TK-10 renal
786-0 renal = system: 786-0 renal
HCT-15 colon = system: HCT-15 colon
A549 NSCLC = system: A549 NSCLC
UACC-62 melanoma = system: UACC-62 melanoma
RXF 393 renal = system: RXF 393 renal
RPMI-8226 leukemia = system: RPMI-8226 leukemia
SW-620 colon = system: SW-620 colon
OVCAR-8 ovarian = system: OVCAR-8 ovarian
MOLT-4 leukemia = system: MOLT-4 leukemia
EKVX NSCLC = system: EKVX NSCLC
SN12C renal = system: SN12C renal
OVCAR-4 ovarian = system: OVCAR-4 ovarian
SF-539 CNS = system: SF-539 CNS
NCI-H23 lung = system: NCI-H23 lung
HL-60(TB) leukemia = system: HL-60(TB) leukemia
PC-3 prostate = system: PC-3 prostate
LOX IMVI melanoma = system: LOX IMVI melanoma
MCF7 breast = system: MCF7 breast
IGROV1 ovarian = system: IGROV1 ovarian
ACHN renal = system: ACHN renal
DU-145 prostate = system: DU-145 prostate
HCT-116 colon = system: HCT-116 colon
SK-MEL-28 melanoma = system: SK-MEL-28 melanoma
SNB-19 CNS = system: SNB-19 CNS
MALME-3M melanoma = system: MALME-3M melanoma
HCC-2998 colon = system: HCC-2998 colon
HOP-92 NSCLC = system: HOP-92 NSCLC
CCRF-CEM leukemia = system: CCRF-CEM leukemia
CAKI-1 renal = system: CAKI-1 renal
NCI-H460 lung = system: NCI-H460 lung
OVCAR-3 ovarian = system: OVCAR-3 ovarian
SK-OV-3 ovarian = system: SK-OV-3 ovarian
SK-MEL-2 melanoma = system: SK-MEL-2 melanoma

## CCOC(=O)CNC(=O)CCCn1c(=O)c2c3ccccc3n(C)c2n2nnc(-c3ccccc3)c12
SF-295 CNS
  GI50: 4.83 µM
  TGI: 17.4 µM
MDA-MB-435
  GI50: > 50 µM
  TGI: > 50 µM
A498 renal
  GI50: 7.29 µM
  TGI: 24.6 µM
UO-31 renal
  GI50: 47.8 µM
  TGI: > 50 µM
M14 melanoma
  GI50: 18.7 µM
  TGI: > 50 µM
UACC-257 melanoma
  GI50: > 50 µM
  TGI: > 50 µM
HT29 colon
  GI50: > 50 µM
  TGI: > 50 µM
KM12 colon
  GI50: > 50 µM
  TGI: > 50 µM
NCI/ADR-RES ovarian
  GI50: > 50 µM
  TGI: > 50 µM
HS 578T breast
  GI50: 4.51 µM
  TGI: > 50 µM
OVCAR-5 ovarian
  GI50: 27.7 µM
  TGI: > 50 µM
COLO 205 colon
  GI50: > 50 µM
  TGI: > 50 µM
HOP-62 NSCLC
  GI50: 5.88 µM
  TGI: 17.7 µM
SNB-75 CNS
  GI50: 1.12 µM
  TGI: 3.59 µM
U251 CNS
  GI50: 4.14 µM
  TGI: 14.6 µM
SF-268 CNS
  GI50: 14.2 µM
  TGI: > 50 µM
NCI-H522 lung
  GI50: 6.49 µM
  TGI: 19.9 µM
MDA-MB-231 breast
  GI50: 14.7 µM
  TGI: 31 µM
NCI-H226 lung
  GI50: 25.1 µM
  TGI: > 50 µM
K-562 leukemia
  GI50: 4.73 µM
  TGI: > 50 µM
T-47D breast
  GI50: 43.9 µM
  TGI: > 50 µM
TK-10 renal
  GI50: 8.71 µM
  TGI: 20.9 µM
786-0 renal
  GI50: 5.13 µM
  TGI: 17.4 µM
HCT-15 colon
  GI50: > 50 µM
  TGI: > 50 µM
A549 NSCLC
  GI50: 32.8 µM
  TGI: > 50 µM
UACC-62 melanoma
  GI50: 7.2 µM
  TGI: 21.8 µM
RXF 393 renal
  GI50: 1.33 µM
  TGI: 4.41 µM
RPMI-8226 leukemia
  GI50: 10.7 µM
  TGI: 33.9 µM
SW-620 colon
  GI50: > 50 µM
  TGI: > 50 µM
OVCAR-8 ovarian
  GI50: 25.2 µM
  TGI: > 50 µM
MOLT-4 leukemia
  GI50: > 50 µM
  TGI: > 50 µM
EKVX NSCLC
  GI50: 20.5 µM
  TGI: > 50 µM
SN12C renal
  GI50: > 50 µM
  TGI: > 50 µM
OVCAR-4 ovarian
  GI50: > 50 µM
  TGI: > 50 µM
SF-539 CNS
  GI50: 4.3 µM
  TGI: 11.6 µM
NCI-H23 lung
  GI50: 11.8 µM
  TGI: > 50 µM
HL-60(TB) leukemia
  GI50: 20.6 µM
  TGI: > 50 µM
PC-3 prostate
  GI50: 8.59 µM
  TGI: > 50 µM
LOX IMVI melanoma
  GI50: 25.1 µM
  TGI: > 50 µM
MCF7 breast
  GI50: 31.3 µM
  TGI: > 50 µM
IGROV1 ovarian
  GI50: 8.87 µM
  TGI: 29.9 µM
ACHN renal
  GI50: 9.24 µM
  TGI: 33.7 µM
DU-145 prostate
  GI50: 32 µM
  TGI: > 50 µM
HCT-116 colon
  GI50: 9.04 µM
  TGI: 27.3 µM
SK-MEL-28 melanoma
  GI50: > 50 µM
  TGI: > 50 µM
SNB-19 CNS
  GI50: 5.83 µM
  TGI: 22.7 µM
MALME-3M melanoma
  GI50: > 50 µM
  TGI: > 50 µM
HCC-2998 colon
  GI50: > 50 µM
  TGI: > 50 µM
HOP-92 NSCLC
  GI50: 3.6 µM
  TGI: 14.8 µM
CCRF-CEM leukemia
  GI50: 26.5 µM
  TGI: > 50 µM
CAKI-1 renal
  GI50: 8.37 µM
  TGI: 20 µM
NCI-H460 lung
  GI50: > 50 µM
  TGI: > 50 µM
OVCAR-3 ovarian
  GI50: 12.5 µM
  TGI: 48.8 µM
SK-OV-3 ovarian
  GI50: 6.7 µM
  TGI: 44 µM
SK-MEL-2 melanoma
  GI50: 9.46 µM
  TGI: 29.1 µM
